Test results reported in patent US8664257B2, “Oxygen-substituted 3-heteroaroylamino-propionic acid derivatives and their use as pharmaceuticals” (Sanofi, priority 2010, dated 2014).
Read-outs that look alike come from different tables or passages of the source. Each block holds one compound with its values, some of them ahead of it.

Target: T1, Recombinant human cathepsin A (Homo sapiens, UniProt P10619)
T1 construct: Recombinant human cathepsin A (residues 29-480, with a C-terminal 10-His tag); 10-His (C); purchased R&D Systems 1049-SE
T1 sequence (P10619 29-312 limits assumed): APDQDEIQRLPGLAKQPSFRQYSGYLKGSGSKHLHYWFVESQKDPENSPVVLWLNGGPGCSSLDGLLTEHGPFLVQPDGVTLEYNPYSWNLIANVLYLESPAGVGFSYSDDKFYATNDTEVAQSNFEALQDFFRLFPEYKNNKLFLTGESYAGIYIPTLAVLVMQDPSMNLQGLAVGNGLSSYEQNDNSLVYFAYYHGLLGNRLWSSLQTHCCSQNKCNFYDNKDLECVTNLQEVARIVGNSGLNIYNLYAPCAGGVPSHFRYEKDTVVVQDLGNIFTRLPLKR
T1 sequence (P10619 327-480 limits assumed): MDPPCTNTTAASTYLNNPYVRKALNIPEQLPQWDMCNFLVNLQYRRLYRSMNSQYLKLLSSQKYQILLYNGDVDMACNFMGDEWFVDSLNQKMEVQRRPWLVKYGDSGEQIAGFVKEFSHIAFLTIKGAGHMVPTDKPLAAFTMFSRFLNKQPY
Assay: Cathepsin A inhibitory activity
Type: biochemical
Procedure, shortened: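 Read-out was microfluidic separation of cleaved vs. uncleaved Bodipy FL-bradykinin (2 μM), giving turnover, % inhibition and IC50. Compound and 833 ng/ml enzyme met for 15 min RT in pH 5.5 MES/DTT before substrate (15 min RT). The 29-480 His-tagged human enzyme was first activated by cathepsin L, then E-64 (10 μM).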

[1] = recombinant human cathepsin A 833 ng/ml, Bodipy FL-labeled bradykinin 2 μM, pH 5.5, read-out: CATH-A IC50
[2] = recombinant human cathepsin A, read-out: Activity (2): Cathepsin A inhibitory activity, IC50 class
[3] = read-out: Activity (2): Cathepsin A inhibitory activity (IC50 class)
[4] = read-out: Activity (2): Cathepsin A inhibitory activity, IC50 class
[5] = pharmacological test "Cathepsin A inhibitory activity", IC50 given as class A/B/C, read-out: Activity (2): Cathepsin A inhibitory activity, IC50 class

SMILES: O=C(O)CC(NC(=O)c1cc(O)n(-c2cccc(Cl)c2)n1)c1ccccc1SC(F)(F)F (centres unmarked) [Example 467, 3-{[1-(3-Chloro-phenyl)-5-hydroxy-1H-pyrazole-3-carbonyl]-amino}-3-(2-trifluoromethylsulfanyl-phenyl)-propionic acid]
- IC50 [1]: 2.25 µM
- IC50 [2]: 1 to 30 µM

SMILES: O=C(O)CC(NC(=O)c1cc(O)n(-c2cccc(F)c2)n1)c1ccc(-c2ccc(F)cc2)cc1 (centres unmarked) [Example 333]
- IC50 [4]: 1 to 30 µM

SMILES: O=C(O)C[C@H](NC(=O)c1cc(O)n(-c2ccc(F)cc2)n1)c1ccccc1C(F)(F)F [Example 367]
- IC50 [4]: 0.1 to 1 µM

SMILES: O=C(O)CC(NC(=O)c1cc(O)n(-c2cccc(F)c2)n1)c1ccc(-c2ccccc2)cc1 (centres unmarked) [Example 327]
- IC50 [4]: 0.1 to 1 µM

SMILES: COc1ccc(Cl)cc1C(CC(=O)O)NC(=O)c1cc(O)n(-c2ccccc2Cl)n1 (centres unmarked) [Example 209]
- IC50 [5]: 0.1 to 1 µM

SMILES: O=C(O)CC(NC(=O)c1cc(O)n(-c2cccc(F)c2)n1)c1cccc(C(F)(F)F)c1 (centres unmarked) [Example 304]
- IC50 [4]: 0.1 to 1 µM

SMILES: CC(C)CC(CC(=O)O)NC(=O)c1cc(OCC(C)(O)C(C)C)n(-c2ccccc2F)n1 (centres unmarked) [Example 814, 3-{[1-(2-Fluoro-phenyl)-5-(2-hydroxy-2,3-dimethyl-butoxy)-1H-pyrazole-3-carbonyl]-amino}-5-methyl-hexanoic acid]
- IC50 [4]: < 0.1 µM

SMILES: COc1cccc([C@H](CC(=O)O)NC(=O)c2cc(O)n(-c3cccc(Cl)c3)n2)c1 [Example 413]
- IC50 [2]: 1 to 30 µM

SMILES: O=C(O)CC(NC(=O)c1cc(O)n(-c2cccc(Cl)c2)n1)c1ccc(-c2ccccc2)cc1 (centres unmarked) [Example 421]
- IC50 [2]: 0.1 to 1 µM

SMILES: O=C(O)CC(NC(=O)c1cc(O)n(-c2cccc(Cl)c2)n1)c1cccc(Cl)c1F (centres unmarked) [Example 262]
- IC50 [5]: 0.1 to 1 µM

SMILES: Cc1ccc(C(CC(=O)O)NC(=O)c2cc(O)n(-c3cccc(Cl)c3)n2)c(C)c1 (centres unmarked) [Example 419]
- IC50 [2]: 0.1 to 1 µM

SMILES: O=C(O)CC(NC(=O)c1cc(O)n(-c2cccc(F)c2)n1)c1cccc2c1OC(F)(F)O2 (centres unmarked) [Example 484]
- IC50 [2]: 0.1 to 1 µM

SMILES: O=C(O)CC(CCc1ccccc1)NC(=O)c1cc(O)n(-c2ccccc2)n1 (centres unmarked) [Example 15]
- IC50 [4]: 1 to 30 µM

SMILES: O=C(O)CC(NC(=O)c1cc(O)n(C2CCCC2)n1)c1ccc(-c2ccc(F)cc2)cc1 (centres unmarked) [Example 574]
- IC50 [3]: 1 to 30 µM

SMILES: Cc1ccc(F)cc1C(CC(=O)O)NC(=O)c1cc(O)n(-c2ccc(F)cc2)n1 (centres unmarked) [Example 492, 3-(5-Fluoro-2-methyl-phenyl)-3-{[1-(4-fluoro-phenyl)-5-hydroxy-1H-pyrazole-3-carbonyl]-amino}-propionic acid]
- IC50 [1]: 0.175 µM
- IC50 [2]: 0.1 to 1 µM

SMILES: Cc1cccc(C(CC(=O)O)NC(=O)c2cc(O)n(-c3ccccc3Cl)n2)c1C (centres unmarked) [Example 220]
- IC50 [5]: 0.1 to 1 µM

SMILES: CC(C)(C)[C@](C)(O)COc1cc(C(=O)N[C@H](CC(=O)O)Cc2ccc(C#N)cc2)nn1-c1ccccc1F [Example 832, (S)-4-(4-Cyano-phenyl)-3-{[1-(2-fluoro-phenyl)-5-((S)-2-hydroxy-2,3,3-trimethyl-butoxy)-1H-pyrazole-3-carbonyl]-amino}-butyric acid]
- IC50 [4]: 1 to 30 µM

SMILES: Cc1cc(F)ccc1C(CC(=O)O)NC(=O)c1cc(O)n(-c2cccc(Cl)c2)n1 (centres unmarked) [Example 420]
- IC50 [2]: 0.1 to 1 µM

SMILES: Cc1cc(F)ccc1C(CC(=O)O)NC(=O)c1cc(O)n(-c2cccc(F)c2)n1 (centres unmarked) [Example 326]
- IC50 [4]: 0.1 to 1 µM

SMILES: COc1cccc(F)c1C(CC(=O)O)NC(=O)c1cc(O)n(-c2ccc(F)cc2F)n1 (centres unmarked) [Example 449, 3-{[1-(2,4-Difluoro-phenyl)-5-hydroxy-1H-pyrazole-3-carbonyl]-amino}-3-(2-fluoro-6-methoxy-phenyl)-propionic acid]
- IC50 [1]: 0.176 µM
- IC50 [2]: 0.1 to 1 µM

SMILES: O=C(O)C[C@H](NC(=O)c1cc(O)n(-c2ccc(F)cc2F)n1)c1ccccc1C(F)(F)F [Example 198]
- IC50 [5]: 0.1 to 1 µM

SMILES: COc1ccc(C(CC(=O)O)NC(=O)c2cc(O)n(-c3cc(C)ccc3C)n2)cc1OC (centres unmarked) [Example 30]
- IC50 [4]: 1 to 30 µM

SMILES: COc1ccc([C@H](CC(=O)O)NC(=O)c2cc(OC[C@](C)(O)C(C)C)n(-c3ccccc3F)n2)cc1 [Example 850, (S)-3-{[1-(2-Fluoro-phenyl)-5-((R)-2-hydroxy-2,3-dimethyl-butoxy)-1H-pyrazole-3-carbonyl]-amino}-3-(4-methoxy-phenyl)-propionic acid]
- IC50 [4]: < 0.1 µM

SMILES: COc1ccccc1[C@H](CC(=O)O)NC(=O)c1cc(O)n(-c2ccc(F)cc2F)n1 [Example 177]
- IC50 [5]: 0.1 to 1 µM

SMILES: N#Cc1ccc([C@H](CC(=O)O)NC(=O)c2cc(O)n(-c3cccc(Cl)c3)n2)cc1 [Example 410]
- IC50 [2]: 1 to 30 µM

SMILES: NS(=O)(=O)c1cccc(-n2nc(C(=O)NC(CC(=O)O)c3ccc(-c4ccc(F)cc4)cc3)cc2O)c1 (centres unmarked) [Example 606]
- IC50 [3]: 0.1 to 1 µM

SMILES: COc1cccc([C@H](CC(=O)O)NC(=O)c2cc(O)n(-c3ccc(F)cc3)n2)c1 [Example 348]
- IC50 [4]: 1 to 30 µM

The next lines start with the values.

- IC50 [3]: < 0.1 µM
SMILES: CCOc1cc(C(=O)NC(CC(=O)O)c2cccc(C)c2C)nn1-c1ccccc1F (centres unmarked) [Example 723]

- IC50 [3]: < 0.1 µM
SMILES: Cc1ccccc1[C@H](CC(=O)O)NC(=O)c1cc(OCC(C)(C)O)n(-c2ccccc2F)n1 [Example 752]

- IC50 [3]: < 0.1 µM
SMILES: COc1cc(C(=O)N[C@@H](CC(=O)O)c2ccc(C(F)(F)F)cc2)nn1-c1ccccc1F [Example 674]

- IC50 [3]: < 0.1 µM
SMILES: COc1c(Br)c(C(=O)N[C@@H](CC(=O)O)c2ccccc2C)nn1-c1ccccc1F [Example 594]

- IC50 [3]: 0.1 to 1 µM
SMILES: CCOc1cc(C(=O)N[C@@H](CC(=O)O)c2ccccc2)nn1-c1ccccc1F [Example 707]

- IC50 [1]: 0.142 µM
- IC50 [2]: 0.1 to 1 µM
SMILES: Cc1c(F)cccc1C(CC(=O)O)NC(=O)c1cc(O)n(-c2ccccc2)n1 (centres unmarked) [Example 494, 3-(3-Fluoro-2-methyl-phenyl)-3-[(5-hydroxy-1-phenyl-1H-pyrazole-3-carbonyl)-amino]-propionic acid]

- IC50 [5]: 0.1 to 1 µM
SMILES: O=C(O)CC(NC(=O)c1cc(O)n(-c2ccccc2F)n1)c1cccc(Cl)c1F (centres unmarked) [Example 244]

- IC50 [4]: 0.1 to 1 µM
SMILES: COc1ccc(C(CC(=O)O)NC(=O)c2cc(O)n(-c3ccccc3F)n2)c(C)c1 (centres unmarked) [Example 395]

- IC50 [3]: < 0.1 µM
SMILES: COc1cc(C(=O)NC(CC(=O)O)c2cc(Cl)ccc2Cl)nn1-c1ccccc1F (centres unmarked) [Example 683]

- IC50 [4]: 0.1 to 1 µM
SMILES: Cc1cccc([C@H](CC(=O)O)NC(=O)c2cc(O)n(-c3ccccc3F)n2)c1 [Example 404]

- IC50 [3]: < 0.1 µM
SMILES: O=C(O)C[C@H](NC(=O)c1cc(OCC2CC2)n(-c2ccccc2F)n1)c1cccc(Cl)c1Cl [Example 702]

- IC50 [3]: < 0.1 µM
SMILES: CCOc1cc(C(=O)N[C@@H](CC(=O)O)c2cccc(C)c2)nn1-c1ccccc1Cl [Example 732]

- IC50 [3]: < 0.1 µM
SMILES: CCOc1cc(C(=O)N[C@@H](CC(=O)O)c2cccc(Cl)c2Cl)nn1-c1ccccc1F [Example 722]

- IC50 [5]: 0.1 to 1 µM
SMILES: O=C(O)CC(NC(=O)c1cc(O)n(-c2ccccc2Cl)n1)c1ccc(-c2ccccc2)cc1 (centres unmarked) [Example 226]

- IC50 [4]: 0.1 to 1 µM
SMILES: O=C(O)CC(NC(=O)c1cc(O)n(-c2ccccc2Cl)n1)c1cccc(Cl)c1 (centres unmarked) [Example 391]

- IC50 [3]: 0.1 to 1 µM
SMILES: COc1cc(C(=O)N[C@@H](CC(=O)O)c2ccccc2F)nn1-c1ccccc1F [Example 679]

- IC50 [2]: 0.1 to 1 µM
SMILES: COc1ccc(-c2ccc(C(CC(=O)O)NC(=O)c3cc(O)n(-c4ccccc4F)n3)cc2)cn1 (centres unmarked) [Example 531]

- IC50 [5]: 0.1 to 1 µM
SMILES: COc1cccc([C@H](CC(=O)O)NC(=O)c2cc(O)n(-c3ccccc3Cl)n2)c1 [Example 213]

- IC50 [3]: < 0.1 µM
SMILES: Cc1cc(COc2cc(C(=O)N[C@@H](CC(=O)O)c3ccccc3C)nn2-c2ccccc2F)no1 [Example 657]
